One data set relates to 3T3-L1 adipocytes. Briefly: Forskolin-stimulated lipolysis of differentiated 3T3-L1 adipocytes. Format: cell-based, mouse. The conditions noted are these: 10 µM forskolin-stimulated, dose dependent (0-50 µM). The method, then:
(§1) • Figure 1. Structure of compounds 1 to 3 (reference) and compound 4 (atglistatin) and effect on ATGL activity. For determination of lipase activity, lysates of E. coli overexpressing recombinant strep-tagged ATGL and CGI-58 were incubated with a substrate containing radiolabeled [9,10-3H(N)]-triolein. Subsequently, FA were extracted and quantified by liquid scintillation counting. Lysates of cells expressing empty vector were set as blank. Inhibitors were solubilized in DMSO and added at the indicated concentrations. DMSO alone was used as negative control. (A) Structure and IC50 values of compounds 1-4. (B) Dose-dependent inhibition of ATGL in the presence of compound 3 and 4. […] (C) Lineweaver-Burk plots for kinetic analysis of ATGL inhibition. Experiments were performed at varying concentrations of substrate (0.05 - 3 mM) in presence and absence of compound 4 (Atglistatin). […] Lipase activity of ATGL, HSL, lipoprotein lipase, and pancreatic lipase was determined using triolein as substrate. MGL activity was detected in the presence of rac-(1,3)-monooleoylglycerol as substrate. […] The release of FA (A) and glycerol (B) in the media was determined using commercial kits. […] At the indicated timepoints blood was taken retroorbitally and plasma parameters were measured using commercial kits. […] 8 h after gavage blood was taken retroorbitally and plasma parameters were measured using commercial kits. […]

The next data set concerns AML-12 mouse hepatocytes. Briefly: MTT-based in vitro viability (toxicity) test. Format: cell-based. The note with it: at concentrations ≥100 µM. The method, then: Toxicity test for Atglistatin in AML-12 mouse hepatocytes. For MTT-based in vitro viability assays, cells were seeded at an initial density of 1x10^4 cells per well in 96-well plates and cultured under standard conditions for twenty-four hours. The next day, cells were pretreated with different concentrations of Atglistatin dissolved in DMSO or Cisplatin dissolved in dimethylformamide (DMF) (Sigma-Aldrich) as positive control for two hours. Medium was replaced by an identical fresh medium and incubated again for the indicated timepoints. Thereafter cells were incubated for 3 hours with 100 µl Thiazolyl Blue Tetrazolium Bromide (MTT). The resulting violet formazan crystals were dissolved by adding 100 µl of MTT Solubilization Solution (0.1% NP-40, 4 mM HCl and anhydrous isopropanol). After complete dissolution of the formazan product, absorbance was measured at 595 nm and 690 nm. The values obtained at 690 nm were subtracted from the 595 nm measurements.

Data set [1] can be described thus: Tissue TG content after oral gavage in fasted mice. Format: in vivo, C57BI6 mice. The protocol:
Animals. Mice (C57BI/6J) were maintained on a regular light-dark cycle (14 hours light, 10 hours dark) and kept on a standard laboratory chow diet (4.5% wt/wt fat, Sniff GMBH Germany). Maintenance, handling, and tissue collection from mice has been approved by the Austrian Federal Ministry of Science and Research Education and by the ethics committee of the University of Graz. Atglistatin was orally administrated by gavage of 200 µl olive oil containing Atglistatin.
Determination of tissue TG content. For tissue collection mice were euthanized by cervical dislocation. Subsequently, tissues were excised and snap frozen. After homogenisation in buffer A without DTT, TG was measured using TG reagent (Thermo Electron Corp., Victoria, Australia).
Table 1. Inhibition of lipolysis in vivo. C57BI6 mice were fasted overnight and received an oral gavage containing 200 µmol/kg Atglistatin dissolved in olive oil, or olive oil as control. After 8 h blood was taken retroorbitally and mice were sacrificed. (A) Plasma parameters were measured using commercial kits. (B) Tissue triglyceride (TG) and protein levels were determined in whole tissue lysates and are presented as TG (nmol) per protein (mg). Data are presented as mean + S.D. (*, p < 0.05 **, p < 0.01; ***, p < 0.001). n = 7

For data set [2], the system named is TG hydrolase activity in lysates obtained from ATGL-ko animals. Briefly: TG hydrolase activity in WAT lysates of ATGL-ko mice. Format: biochemical. The note with it: at concentrations ≥ 20 µM. The method, then: as §1

Regarding `CN(C)C(=O)Nc1cccc(-c2ccc(N(C)C)cc2)c1` [Atglistatin, atglistatin], in the data set on 3T3-L1 adipocytes, the “inhibition of FA release” value is reported as “almost complete inhibition” and the “inhibition of glycerol release” value was approximately 90%. In the data set on AML-12 mouse hepatocytes, the “cell viability (cytotoxicity assays)” value is listed as “only a very moderate decrease in cell viability”. The “Tissue triglyceride (TG), skeletal muscle” value in data set [1] (200 µmol/kg oral gavage, after 8 h, mean ± S.D., n = 7) came out at 99 ± 13 nmol TG /mg protein. The “accumulation of TG in cardiac muscle and other tissues” value in data set [1] (mouse, in vivo) is recorded as “did not promote the accumulation of TG”. In addition, the “effect on the residual TG hydrolase activity in ATGL-ko lysates” value in data set [2] is given as “moderate but significant effect”.

Values taken from patent EP2948433B1, “ATGLISTATIN AS LIPASE INHIBITOR” (Technische Universität Graz, priority 2013, dated 2014).
